Consider four compounds from US7166297B2, “Lipid-based drug delivery systems against parasitic infections” (LiPlasome Pharma A/S, priority 2000, dated 2007).

Series [1] deals with T1, phospholipase A2 (A. piscivorus piscivorus) (Agkistrodon piscivorus piscivorus, UniProt P51972).
T1 sequence (P51972 1-123): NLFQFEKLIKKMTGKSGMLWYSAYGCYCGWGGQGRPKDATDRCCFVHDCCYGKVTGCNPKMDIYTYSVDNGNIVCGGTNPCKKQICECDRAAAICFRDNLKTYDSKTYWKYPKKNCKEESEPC
Experimental: HPLC chromatograms illustrating the effect of phospholipase A2 hydrolysis of micelles composed DSPE-PEG750 (0.150 mM). The chromatograms show the amount of stearic acid generated before (solid line) phospholipase A2 (A. piscivorus piscivorus) was added to the micelle suspension and the amount (dashed line) of DSPE-PEG750 after the lag-burst. The dotted line show pure stearic acid (0.4 mM). The percentage hydrolysis was calculated on basis of the integrated area of the stearic acid standard (115850 units) and the integrated area of the sample (45630 units).
The hydrolysis of micelles composed DSPE-PEG750 was followed by analysis of the amount of stearic acid generated. The catalytic reaction was initiated by adding 8.9 μL of a 42 μM PLA2 (150 nM) stock solution to 2.5 ml a thermostated lipid suspension of DSPE-PEG750 (0.150 mM) equilibrated at 45° C. for 600 seconds prior to addition of PLA2. The characteristic burst behavior of PLA2 towards the micelles is signaled by a sudden increase in the intrinsic fluorescence from PLA2 at 340 nm after excitation at 285 nm followed by a concomitant decrease in the 90° light scattering from the lipid suspension (Hønger et al., Biochemistry 35, 9003–9006). Samples for HPLC analysis of the amount of stearic acid generated were taken before adding PLA2 and 100 sec after the observed lag-time.

Series [2] deals with T2, Snake venom PLA2 (Agkistrodon piscivorus piscivorus) (Agkistrodon piscivorus piscivorus, UniProt P51972).
T2 construct: Purified snake venom PLA2 (Agkistrodon piscivorus piscivorus) was a generous gift from dr; R. L. Biltonen; tissue gift from dr; host or cells: snake venom of Agkistrodon piscivorus piscivorus
T2 sequence (P51972 1-123): T1 sequence (P51972 1-123)
Put plainly: Model system: PLA2-controlled calcein release across D-O-SPC target membrane with DPPC carrier liposomes. Type of series: biochemical.
Experimental: The temperature is 37° C. […] The percentage of calcein released is determined as % Release=100 (IF(t)−IB)/(IT−IB), where IF(t) is the measured fluorescence at time t after addition of the enzyme, IB is the background fluorescence, and IT is the total fluorescence measured after addition of Triton X-100 which leads to complete release of calcein by breaking up the target liposomes. […] The concentration of the target and carrier liposomes are 25 μM, and PLA2 is added in a 25 nM concentration in a HEPES buffer with pH=7.5.
The experimental model system consists of a negatively charged liposome carrier and a model target membrane. The carrier is a 100 nm unilamellar liposome made of dipalmitoyl phosphatidylcholine lipids (DPPC) with a small amount (2.5 mol %) of negatively charged lipid of the type dipaimitoyl phosphatidylethanolamine (DPPE)-PEG2000. The target membrane is another liposome made of 1,2-O-dioctadecyl-sn-glycero-phosphatidylcholine (D-O-SPC) which is a phospholipid where the acyl linkages of the stearoyl chains are ether bonds. In contrast to DPPC, D-O-SPC is inert towards PLA2-catalysed hydrolysis thereby mimicking the stability of an intact target cell membrane toward degradation by its own enzymes. […] The permeation of calcein across the D-O-SPC target membrane is subsequently monitored by the increase in fluorescence. […]

Series [3] has as its system human red blood cells (RBC). Put plainly: Hemolysis assay. The settings on record: low concentrations, 37° C., 20 hours.
Experimental: Briefly, each sample was serially diluted with phosphate buffered saline (PBS), and 0.5 ml of each dilute suspension was mixed with 0.5 ml washed human red blood cells (RBC) [4% in PBS (v/v)]. Sample and standard were placed in a 37° C. incubator and agitated for 20 hours. Tubes were centrifuged at low speed (2000×G) for 10 minutes and 200 μl of the supernatant was quantitated by absorbance at 550 nm. 100 percent hemolysis was defined as the maximum amount of hemolysis obtained from the detergent Triton X-100.
The lipids were hydrated in phosphate buffered saline (PBS). 1-O-octadecyl-2-O-methyl-sn-glycero-3-phosphocholine (ET-18-OCH3) in PBS was included in the assay as a reference.
Briefly, each sample was serially diluted with PBS, and 0.5 ml of each dilute suspension of 1-O-DPPC liposomes were mixed with 0.5 ml washed human red blood cells (RBC) [4% in PBS (v/v)]. For controls, 0.5 ml of the red blood cell suspension was mixed with either 0.5 ml buffer solution (negative hemolysis control) or 0.5 ml water (positive hemolysis control). Samples and standard were placed in a 37° C. incubator and agitated for 20 hours. Tubes were centrifuged at low speed (2000×G) for 10 minutes to form RBCs pellets. 200 μl of the supernatant was quantified by absorbance at 550 nm using a Perkin-Elmer 320 scanning spectrophotometer. […]
The nature of series [4]: Calcein release across target membrane on adding lyso-phospholipid and fatty acid in the absence of PLA2. The settings on record: 25 μM target membranes, pH=7.5, 39° C. As to the method:
FIG. 13. […] The concentration of the target membranes is 25 μM in a HEPES buffer with pH=7.5 at a temperature of 39° C.
The experimental model system consists of a negatively charged liposome carrier and a model target membrane. The carrier is a 100 nm unilamellar liposome made of dipalmitoyl phosphatidylcholine lipids (DPPC) with a small amount (2.5 mol %) of negatively charged lipid of the type dipaimitoyl phosphatidylethanolamine (DPPE)-PEG2000. The target membrane is another liposome made of 1,2-O-dioctadecyl-sn-glycero-phosphatidylcholine (D-O-SPC) which is a phospholipid where the acyl linkages of the stearoyl chains are ether bonds. In contrast to DPPC, D-O-SPC is inert towards PLA2-catalysed hydrolysis thereby mimicking the stability of an intact target cell membrane toward degradation by its own enzymes. This experimental assay, which permits simultaneous as well as separate investigation of the effect of destabilisers at the carrier liposomes and the effect of enhancers at the target membrane, involves entrapment of a water-soluble fluorescent calcein model drug in a self-quenching concentration, in the interior of the non-hydrolysable target liposome, rather than in the carrier liposome. […] The permeation of calcein across the D-O-SPC target membrane is subsequently monitored by the increase in fluorescence. […]

As for “di-octadecanoyl-sn-glycero-3-phosphoethanolamine-N-[methoxy(polyethylene glycol)-750 [DSPE-PEG750]”, the “percent hydrolysis of DSPE-PEG750” value in series [1] (0.150 mM DSPE-PEG750, 150 nM PLA2, 45° C.) is 100%. The same compound yielded a lag time in series [1] (45° C., 150 nM PLA2) of 10 s.
For `CC(C)CCC[C@@H](C)[C@H]1CC[C@H]2[C@@H]3CC=C4C[C@@H](O)CC[C@]4(C)[C@H]3CC[C@]12C` [cholesterol], the “effect on extracellular PLA2 activity (in words)” value was “activates” in series [2] (≈3 mol % incorporated into liposomes) and “deactivated” in series [2] (≈20 mol % incorporated into liposomes, data not shown).
`CCCCCCCCCCCCCCCCCCOC[C@H](COP(=O)([O-])OCC[N+](C)(C)C)OC` [ET-18-OCH3]: the “hemolysis (in words)” value in series [3] was “significant degree of hemolysis”.
With `CCCCCCCCCCCCCCCC(=O)O` [fatty acid, palmitic acid], in series [4], the “rate of calcein release across target membrane (in words)” value is “increased rate of calcein release”.
